Data taken from PubChem BioAssay (NCI).
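Five compound concentrations were applied to cells in 96-well plates for 48 hours; endpoints were derived by simple linear interpolation of the resulting dose-response curve. GI50 is the concentration that inhibits growth by half. At the TGI there is no net growth.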

Key:
Experiment in all cases: NCI-60 cell line screen, 48 h
[1] = system: 786-0 renal
[2] = system: A498 renal
[3] = system: A549 NSCLC
[4] = system: ACHN renal
[5] = system: BT-549 breast
[6] = system: CAKI-1 renal
[7] = system: CCRF-CEM leukemia
[8] = system: COLO 205 colon
[9] = system: DU-145 prostate
[10] = system: EKVX NSCLC
[11] = system: HCC-2998 colon
[12] = system: HCT-116 colon
[13] = system: HCT-15 colon
[14] = system: HL-60(TB) leukemia
[15] = system: HOP-62 NSCLC
[16] = system: HOP-92 NSCLC
[17] = system: HS 578T breast
[18] = system: HT29 colon
[19] = system: IGROV1 ovarian
[20] = system: K-562 leukemia
[21] = system: KM12 colon
[22] = system: LOX IMVI melanoma
[23] = system: M14 melanoma
[24] = system: MALME-3M melanoma
[25] = system: MCF7 breast
[26] = system: MDA-MB-231 breast
[27] = system: MDA-MB-435
[28] = system: MDA-MB-468 breast
[29] = system: MOLT-4 leukemia
[30] = system: NCI-H226 lung
[31] = system: NCI-H23 lung
[32] = system: NCI-H460 lung
[33] = system: NCI-H522 lung
[34] = system: NCI/ADR-RES ovarian
[35] = system: OVCAR-3 ovarian
[36] = system: OVCAR-4 ovarian
[37] = system: OVCAR-5 ovarian
[38] = system: OVCAR-8 ovarian
[39] = system: PC-3 prostate
[40] = system: RPMI-8226 leukemia
[41] = system: RXF 393 renal
[42] = system: SF-268 CNS
[43] = system: SF-295 CNS
[44] = system: SF-539 CNS
[45] = system: SK-MEL-2 melanoma
[46] = system: SK-MEL-28 melanoma
[47] = system: SK-MEL-5 melanoma
[48] = system: SK-OV-3 ovarian
[49] = system: SN12C renal
[50] = system: SNB-19 CNS
[51] = system: SNB-75 CNS
[52] = system: SR leukemia
[53] = system: SW-620 colon
[54] = system: T-47D breast
[55] = system: TK-10 renal
[56] = system: U251 CNS
[57] = system: UACC-257 melanoma
[58] = system: UACC-62 melanoma
[59] = system: UO-31 renal

## COc1cnc2c(c1)C(=O)c1c-2n(CCCNC(C)C)c(=O)c2cc(OC)c(OC)cc12
[1]
  GI50: 5.51 µM
  TGI: 19.1 µM
[2]
  GI50: 14.2 µM
  TGI: 27.5 µM
[3]
  GI50: 5.7 µM
  TGI: 23.8 µM
[4]
  GI50: 1.75 µM
  TGI: 13.7 µM
[5]
  GI50: 4.26 µM
  TGI: 20.6 µM
[6]
  GI50: 2.17 µM
  TGI: 15.7 µM
[7]
  GI50: 0.256 µM
  TGI: 89.9 µM
[8]
  GI50: 5.74 µM
  TGI: 22.6 µM
[9]
  GI50: 1.27 µM
  TGI: 13.5 µM
[10]
  GI50: 10.4 µM
  TGI: 22.4 µM
[11]
  GI50: 3.09 µM
  TGI: 16.8 µM
[12]
  GI50: 1.02 µM
  TGI: 12.8 µM
[13]
  GI50: 1.86 µM
  TGI: 16.3 µM
[14]
  GI50: 3.54 µM
  TGI: 17.2 µM
[15]
  GI50: 0.702 µM
  TGI: 7.94 µM
[16]
  GI50: 9.11 µM
  TGI: 23.9 µM
[17]
  GI50: 11.2 µM
  TGI: 32.6 µM
[18]
  GI50: 1.43 µM
  TGI: 10.1 µM
[19]
  GI50: 10.8 µM
  TGI: 23.3 µM
[20]
  GI50: 0.496 µM
  TGI: 22.5 µM
[21]
  GI50: 8.02 µM
  TGI: 21.9 µM
[22]
  GI50: 1.19 µM
  TGI: 4.6 µM
[23]
  GI50: 4.91 µM
  TGI: 20 µM
[24]
  GI50: 11.5 µM
  TGI: 24 µM
[25]
  GI50: 0.222 µM
  TGI: 11.9 µM
[26]
  GI50: 3.35 µM
  TGI: 17.9 µM
[27]
  GI50: 6.52 µM
  TGI: 20.3 µM
[28]
  GI50: 0.68 µM
  TGI: 7.75 µM
[29]
  GI50: 0.107 µM
  TGI: 5.59 µM
[30]
  GI50: 2.55 µM
  TGI: 16.6 µM
[31]
  GI50: 0.977 µM
  TGI: 11.3 µM
[32]
  GI50: 0.3 µM
  TGI: 11.9 µM
[33]
  GI50: 0.536 µM
  TGI: 12.6 µM
[34]
  GI50: 1.73 µM
  TGI: 14.6 µM
[35]
  GI50: 8.99 µM
  TGI: 22.6 µM
[36]
  GI50: 2.5 µM
  TGI: 7.63 µM
[37]
  GI50: 12.3 µM
  TGI: 25.5 µM
[38]
  GI50: 6.05 µM
  TGI: 22.1 µM
[39]
  GI50: 6.53 µM
  TGI: 30.5 µM
[40]
  GI50: 1.39 µM
  TGI: 14.9 µM
[41]
  GI50: 1.35 µM
  TGI: 5.71 µM
[42]
  GI50: 1.31 µM
  TGI: 19.1 µM
[43]
  GI50: 0.29 µM
  TGI: 12.6 µM
[44]
  GI50: 1.36 µM
  TGI: 3.76 µM
[45]
  GI50: 18.5 µM
  TGI: 37.8 µM
[46]
  GI50: 16 µM
  TGI: 29.7 µM
[47]
  GI50: 1.7 µM
  TGI: 11.9 µM
[48]
  GI50: 1.52 µM
  TGI: 8.18 µM
[49]
  GI50: 4.19 µM
  TGI: > 100 µM
[50]
  GI50: 1.2 µM
  TGI: 12.8 µM
[51]
  GI50: 0.155 µM
  TGI: 7.49 µM
[52]
  GI50: 0.369 µM
  TGI: 4.85 µM
[53]
  GI50: 0.946 µM
  TGI: 20.5 µM
[54]
  GI50: 4.97 µM
  TGI: 22.2 µM
[55]
  GI50: 14.2 µM
  TGI: 28 µM
[56]
  GI50: 0.667 µM
  TGI: 17.2 µM
[57]
  GI50: 12 µM
  TGI: 25.2 µM
[58]
  GI50: 2.43 µM
  TGI: 16.1 µM
[59]
  GI50: 5.88 µM
  TGI: 19.7 µM
